The numbers were not newly measured in patent publication US20250352536A1, “NEURORESTORATION COMPOSITIONS IMPLEMENTING MULTIPLE NEUROPLASTICITY INDUCING MECHANISMS OF ACTION” (Neuro-Innovators, Inc., priority 2022, published 2025), which cites them from elsewhere.

Molecules are shown by their SMILES.

In this data set the test system is recurrent stroke. The conditions noted are these: compared with aspirin, previous clinical trials.

Take `O=C1CCc2cc(OCCCCc3nnnn3C3CCCCC3)ccc2N1` [cilostazol, Cilostazol]: the hemorrhagic events result is listed as “fewer hemorrhagic events” and the “incidence of recurrent stroke” value was “significantly reduce the incidence of recurrent stroke”.
